# Laboratory results as given in patent US9157088B2, “Transferases, epimerases, polynucleotides encoding these and uses thereof” (priority 2007, dated 2015).
# T1: L-Galactose-1-Phosphate phosphatase (Arabidopsis thaliana, UniProt Q9M8S8)
# T1 construct: made in house; host or cells: E. coli
# T1 sequence (Q9M8S8 1-271): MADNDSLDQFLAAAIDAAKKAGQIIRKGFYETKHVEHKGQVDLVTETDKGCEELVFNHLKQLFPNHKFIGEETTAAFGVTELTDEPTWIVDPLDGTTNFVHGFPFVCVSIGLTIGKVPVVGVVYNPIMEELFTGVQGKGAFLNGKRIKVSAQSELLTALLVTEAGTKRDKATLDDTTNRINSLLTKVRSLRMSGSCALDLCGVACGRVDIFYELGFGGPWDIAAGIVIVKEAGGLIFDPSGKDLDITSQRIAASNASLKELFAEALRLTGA
# B1: At4g26850: GDP-L-Galactose Guanyltransferase, VTC2 from Arabidopsis thaliana (protein, listed as Arabidopsis thaliana)
# chain: MLKIKRVPTVVSNYQKDDGAEDPVGCGRNCLGACCLNGARLPLYACKNLVKSGEKLVISHEAIEPPVAFLESLVLGEWEDRFQRGLFRYDVTACETKVIPGKYGFVAQLNEGRHLKKRPTEFRVDKVLQSFDGSKFNFTKVGQEELLFQFEAGEDAQVQFFPCMPIDPENSPSVVAINVSPIEYGHVLLIPRVLDCLPQRIDHKSLLLAVHMAAEAANPYFRLGYNSLGAFATINHLHFQAYYLAMPFPLEKAPTKKITTTVSGVKISELLSYPVRSLLFEGGSSMQELSDTVSDCCVCLQNNNIPFNILISDCGRQIFLMPQCYAEKQALGEVSPEVLETQVNPAVWEISGHMVLKRKEDYEGASEDNAWRLLAEASLSEERFKEVTALAFEAIGCSNQEEDLEGTIVHQQNSSGNVNQKSNRTHGGPITNGTAAECLVLQ
# Columns and labels:
# [1] = tested on: L-Galactose dehydrogenase; details: cited from earlier work
# [2] = biological target: kiwifruit GDP-L-Galactose Guanyltransferase EST 319998 (Actinidia chinensis, UniProt A0A2R6QD99); assay: Continuous coupled assay of transferase activity with guanyl acceptors; details: sugar phosphate as guanyl acceptor, epimerase generated substrate
# Experimental: (§1) Expression of genes in E. coli. The EST 319998 from young fruit of Actinidia chinensis and At4g26850 were each cloned into pET30A (Novagene, USA), their sequence checked and expressed in E. coli. The N terminal His6 tag was used to purify the protein. An empty vector control was expressed and purified in parallel. Techniques were essentially as described earlier (Laing et al., 2004).
# L-Galactose dehydrogenase (Gen Bank accession AA018639 (EST 56121), 1.5 ug/assay) was cloned from an EST derived from an A. deliciosa (kiwifruit) shoot bud library with a maltose binding protein presequence and assayed as described previously (Laing et al., 2004). L-Galactose-1-Phosphate phosphatase was cloned from Arabidopsis thaliana (At3g02870, 3.1 ug/assay) and assayed as described (Laing et al., 2004). GDP-D-Mannose 3′,5′-Epimerase (198296) was cloned from dormant kiwifruit (A. deliciosa) buds three days after hydrogen cyanamide treatment and assayed as described (Wolucka et al., 2001). The former two enzymes are highly specific as to their substrates (Laing et al., 2004; Laing et al., 2004).
# The assay for GDP-L-Galactose-1-Phosphate Guanyltransferase was run in 20 mM TrisCl, pH 8.0, GDP-L-Galactose, with 1 mM D-Mannose-1-Phosphate. […] In the latter case, 0.21 mg of epimerase was incubated with GDP-D-Mannose in 20 mM Tris Cl pH 8 in a total volume of 400 μL (see Wolucka et al., 2001) for 30 minutes at 20 C and then used directly in the assay at a 1 to 20 dilution. Assays were either terminated after 10 minutes by heating to 100 C for three minutes, or directly coupled to the phosphatase and L-Galactose dehydrogenase to measure product formation during the assay. Heat terminated assays were cooled on ice, centrifuged to remove precipitated protein and L-Galactose assayed using the coupling enzymes described above (see also (Laing et al., 2004)).
# The applicants used two assays to characterise the enzyme, using two sources of the substrate GDP-L-Galactose. The first assay used the E. coli expressed coupling enzymes L-Galactose-1-Phosphate phosphatase and L-Galactose dehydrogenase. […] The applicants either measured the product formed by adding the coupling enzymes in the assay and measuring the time course of NADH formed, or by stopping the reaction after 10 minutes by boiling for 3 minutes and centrifuging. To this latter fixed time assay, the applicants then either adding coupling enzymes to measure L-Galactose production or using the LCMS to measure the products. The LCMS was used only to confirm the results of the coupled enzyme reaction and to measure the reverse reaction.
# [3] = biological target: T1, L-Galactose-1-Phosphate phosphatase; details: cited from earlier work
# [4] = Transferase activity of E. coli expressed enzymes (coupled reaction and LCMS); assay type: biochemical; details: enzyme expressed in E. coli, His tag purified
# Experimental: as §1, with “2004). In much of this work the His-protein was further purified on a 5 mL HiTrap Q FF column (GE Healthcare), and identical results were obtained with both preparations.” for “2004).”
# The assay for GDP-L-Galactose-1-Phosphate Guanyltransferase was run in 20 mM TrisCl, pH 8.0, GDP-L-Galactose, with 1 mM D-Mannose-1-Phosphate. GDP-L-Galactose was either used directly from the Glycoteam product (in which case high backgrounds were observed due to contaminating L-Galactose-1-Phosphate) or GDP-L-Galactose was generated using the epimerase. In the latter case, 0.21 mg of epimerase was incubated with GDP-D-Mannose in 20 mM Tris Cl pH 8 in a total volume of 400 μL (see Wolucka et al., 2001) for 30 minutes at 20 C and then used directly in the assay at a 1 to 20 dilution. Assays were either terminated after 10 minutes by heating to 100 C for three minutes, or directly coupled to the phosphatase and L-Galactose dehydrogenase to measure product formation during the assay. Heat terminated assays were cooled on ice, centrifuged to remove precipitated protein and L-Galactose assayed using the coupling enzymes described above (see also (Laing et al., 2004)). Assays for L-Galactose were linear with added L-Galactose-1-Phosphate over the range measured. Backgrounds were run using the empty vector control, which gave the same result as a boiled enzyme control. […]
# The applicants used two assays to characterise the enzyme, using two sources of the substrate GDP-L-Galactose. […] The applicants either measured the product formed by adding the coupling enzymes in the assay and measuring the time course of NADH formed, or by stopping the reaction after 10 minutes by boiling for 3 minutes and centrifuging. […]
# kiwifruit GDP-L-Galactose Guanyltransferase EST 319998, sequence (A0A2R6QD99 entry or part of it): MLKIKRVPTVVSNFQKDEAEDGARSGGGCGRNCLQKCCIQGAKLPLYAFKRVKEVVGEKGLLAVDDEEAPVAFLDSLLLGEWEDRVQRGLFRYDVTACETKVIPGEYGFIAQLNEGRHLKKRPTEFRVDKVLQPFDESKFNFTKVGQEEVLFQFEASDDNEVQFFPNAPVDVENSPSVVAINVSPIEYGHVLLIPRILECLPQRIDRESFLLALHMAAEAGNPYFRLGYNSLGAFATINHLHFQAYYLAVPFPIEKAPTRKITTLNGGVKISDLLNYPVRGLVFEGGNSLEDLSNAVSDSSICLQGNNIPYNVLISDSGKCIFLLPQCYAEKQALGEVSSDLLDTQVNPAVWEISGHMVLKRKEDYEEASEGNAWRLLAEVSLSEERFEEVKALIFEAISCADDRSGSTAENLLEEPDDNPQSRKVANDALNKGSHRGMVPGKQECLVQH
molecule,measurement,setting,value
O=C[C@H](O)[C@@H](O)[C@@H](O)[C@H](O)CO [D-Galactose],reaction with L-Galactose dehydrogenase,[1],not reacting
O=C[C@@H](O)[C@@H](O)[C@H](O)[C@H](O)CO [D-Mannose],reaction with L-Galactose dehydrogenase,[1],not reacting
O=P(O)(O)OC1[C@@H](O)[C@H](O)C(O)[C@H](O)[C@@H]1O (stereo partly drawn) [L-Myoinositol-1-P],% of D-mannose-1P,[2],126%
same,Rate,[2]; N = 6,0.42 nmoles/sec/ug protein
same,dephosphorylation by L-Galactose-1-Phosphate phosphatase,[3],significantly dephosphorylating
B1,GDP-L-Galactose Guanyltransferase activity of the expressed enzyme,[4],showed transferase activity
same,GDP-L-Galactose Guanyltransferase activity of the expressed enzyme,[4]; listed as At4g26,could catalyse the conversion of GDP-L-Galactose to L-Galactose-1-P
